Data from article PMC6017415, “Carbamates as Potential Prodrugs and a New Warhead for HDAC Inhibition” (Molecules : A Journal of Synthetic Chemistry and Natural …, 2018).

Columns and labels:
[1] = target: T1, recombinant human HDAC1 (Homo sapiens, UniProt Q13547); assay: HDAC1 in vitro fluorescence-based inhibition assay (ZMAL substrate); format: biochemical; conditions: for IC50: read-out: IC50 (µM) ± SE HDAC1
T1 construct: purchased BPS Biosciences (San Diego, CA, USA)
Source text: (§1) In order to investigate a potential subtype selectivity among different HDAC classes, we first tested them against the recombinant histone deacetylases HDAC1 (class I) and HDAC6 (class llb). […] To further address this issue, we also tested the respective compounds against the class l histone deacetylase HDAC8 (also see Table 1).
(§2) Recombinant human HDAC1 and 6 were purchased from BPS Biosciences (San Diego, CA, USA), and recombinant human HDAC8 was produced as described before. Inhibition tests of human HDAC1 and 6 were conducted using carboxybenzyl acetyllysine aminomethylcoumarin (ZMAL) as a substrate. […] For testing of HDAC8, the commercial Fluor de Lys drug discovery kit (BML-KI178) (Enzo Life Sciences, Lausen, Switzerland) was used according to the manufacturer’s instruction. Briefly, the test compound, Fluor de Lys-HDAC8 substrate (50 μM), and enzyme were incubated for 90 min at 37 °C with subsequent addition of 50 μL of Developer II (BML-KI176) (Enzo Life Sciences, Lausen, Switzerland) and further incubation for 45 min at 30 °C. In both assays, trichostatin A (2 μM) was used to stop the reaction. Fluorescence in both cases was measured in a plate reader (BMG Polarstar, BMG Labtech, Ortenberg, Germany) with excitation at λ = 390 nm and emission at λ = 460 nm.

[2] = system: U937 cells; assay: Cell proliferation assay (CellTiter 96 AQueous) in U937 cells; conditions: Homo sapiens, U-937, 72 h, read-out: GI50 (µM) ± SE U937
Method: (§3) To further investigate the inhibition properties of the carbamates, we tested their antiproliferative activity on human promyelocytic leukemia cells (HL60) and on human histiocytic lymphoma cells (U937).
(§4) HL60 or U937 cells were seeded in 96-well tissue culture plates at a density of 5 × 10^4 cells per well. Cells were immediately incubated with inhibitors. As these cells already differentiate with 1% DMSO content, inhibitors were prepared as 200× stock solutions in DMSO. In all cases, inhibitors were compared to DMSO vehicle only, and three replicates per concentration were used. Growth inhibition was determined using the CellTiter 96® AQueous Non-Radioactive Cell Proliferation Assay according to the manufacturer’s instructions. Briefly, 5 × 10^4 of HL60 or U937 cells per well were treated with DMSO stocks of the respective inhibitors or with DMSO in 100 µL cell culture medium and incubated for 72 h at 37 °C and 5% CO2 in transparent 96-well microtiter plates (PAA). Subsequently, 20 µL of the detection reagent (containing a tetrazolium salt) was added to each well and incubated for 4 more hours under the same conditions. After this time, absorption was measured at a wavelength of 490 nm (BMG Polarstar, BMG Labtech, Ortenberg, Germany).

[3] = system: HDAC activity in HL60 cells; assay: Cellular HDAC inhibition assay (MAL substrate) in HL60 cells; conditions: Homo sapiens, HL-60, read-out: IC50 (µM) ± SE cellular HDAC inhibition HL60
Method: (§5) Therefore, we decided to adapt this assay for a cellular setting allowing us to verify the previous results by assessing HDAC inhibition in the human leukemia cell lines HL60 and U937 (see the right side of Table 2).
(§6) After 2 h of incubation, 50 µL substrate solution were added, containing tert-butyloxycarbonyl acetyl lysine aminomethylcoumarin (MAL) as a substrate (300 µM final assay concentration) and IGEPAL CA-630 (final concentration 0.05%). After 2 more hours of incubation at 37 °C and 5% CO2, 50 µL stop solution consisting of 0.5 µL TSA (100 µM) and 5 µL trypsin solution (10 mg/mL) in 44.5 µL cell buffer were added. This mixture was incubated for a further 20 min at 37 °C. Fluorescence was measured in a plate reader (BMG Polarstar) with excitation at λ = 390 nm and emission at λ = 460 nm.

[4] = target: T2, recombinant human HDAC8 (Homo sapiens, UniProt Q9BY41); assay: HDAC8 in vitro inhibition assay (Fluor de Lys kit); format: biochemical; conditions: at 100 µM; read-out: Inhibition (%) @ Conc. (µM) HDAC8
T2 construct: made in house
T2 sequence (Q9BY41 1-377): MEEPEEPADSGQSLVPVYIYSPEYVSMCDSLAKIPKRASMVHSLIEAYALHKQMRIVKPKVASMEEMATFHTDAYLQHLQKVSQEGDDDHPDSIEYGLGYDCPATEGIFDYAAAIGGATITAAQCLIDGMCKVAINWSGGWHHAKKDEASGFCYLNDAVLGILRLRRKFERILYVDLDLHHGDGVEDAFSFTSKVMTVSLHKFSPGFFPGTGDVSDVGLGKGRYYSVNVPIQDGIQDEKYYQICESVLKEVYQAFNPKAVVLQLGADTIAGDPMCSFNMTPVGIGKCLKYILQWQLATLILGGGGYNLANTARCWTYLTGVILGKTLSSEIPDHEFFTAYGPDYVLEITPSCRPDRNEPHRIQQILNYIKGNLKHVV
Source text: as §1, §2

[5] = target: T3, recombinant human HDAC6 (Homo sapiens, UniProt Q9UBN7); assay: HDAC6 in vitro fluorescence-based inhibition assay (ZMAL substrate); format: biochemical; conditions: recombinant human HDAC6, ZMAL 10.5 µM, 90 min 37 °C; for IC50: read-out: IC50 (µM) ± SE HDAC6
T3 construct: purchased BPS Biosciences (San Diego, CA, USA)
T3 sequence (Q9UBN7 1-1215): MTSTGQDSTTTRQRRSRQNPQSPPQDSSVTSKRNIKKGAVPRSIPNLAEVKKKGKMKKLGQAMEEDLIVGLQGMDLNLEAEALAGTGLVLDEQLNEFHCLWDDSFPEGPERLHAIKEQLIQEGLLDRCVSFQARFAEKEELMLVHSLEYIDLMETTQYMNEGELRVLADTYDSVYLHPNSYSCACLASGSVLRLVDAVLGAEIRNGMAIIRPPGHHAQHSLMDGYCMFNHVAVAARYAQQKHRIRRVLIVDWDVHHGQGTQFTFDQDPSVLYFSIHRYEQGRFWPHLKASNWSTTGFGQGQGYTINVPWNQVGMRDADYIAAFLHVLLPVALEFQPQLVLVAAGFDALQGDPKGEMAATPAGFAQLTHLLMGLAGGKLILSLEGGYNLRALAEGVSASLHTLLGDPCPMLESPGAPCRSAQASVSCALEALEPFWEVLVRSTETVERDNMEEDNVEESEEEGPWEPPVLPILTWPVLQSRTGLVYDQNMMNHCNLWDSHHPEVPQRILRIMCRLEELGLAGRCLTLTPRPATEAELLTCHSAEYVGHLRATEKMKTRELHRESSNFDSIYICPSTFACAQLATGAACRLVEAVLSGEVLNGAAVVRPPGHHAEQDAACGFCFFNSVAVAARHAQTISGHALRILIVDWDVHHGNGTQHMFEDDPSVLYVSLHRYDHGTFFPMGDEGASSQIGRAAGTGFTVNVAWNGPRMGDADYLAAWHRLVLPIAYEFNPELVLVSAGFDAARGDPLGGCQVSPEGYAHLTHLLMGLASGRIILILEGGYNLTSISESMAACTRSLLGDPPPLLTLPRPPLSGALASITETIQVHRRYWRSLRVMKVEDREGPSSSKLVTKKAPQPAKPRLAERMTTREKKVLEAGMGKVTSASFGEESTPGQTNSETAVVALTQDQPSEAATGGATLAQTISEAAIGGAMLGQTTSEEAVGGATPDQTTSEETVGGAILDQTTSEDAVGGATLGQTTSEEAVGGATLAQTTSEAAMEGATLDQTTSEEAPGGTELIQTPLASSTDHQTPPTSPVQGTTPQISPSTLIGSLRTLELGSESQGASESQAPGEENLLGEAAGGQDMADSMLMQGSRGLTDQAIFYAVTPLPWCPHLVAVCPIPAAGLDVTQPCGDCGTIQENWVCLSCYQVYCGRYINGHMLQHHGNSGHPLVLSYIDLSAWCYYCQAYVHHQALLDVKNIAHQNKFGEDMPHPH
Source text: as §1, §2

[6] = system: HDAC activity in U937 cells; assay: Cellular HDAC inhibition assay (MAL substrate) in U937 cells; conditions: Homo sapiens, U-937, read-out: IC50 (µM) ± SE cellular HDAC inhibition U937
Method: as §5, §6

[7] = Stability analysis under in vitro assay conditions, HPLC quantification of released hydroxamic acid; format: physicochemical; conditions: in vitro assay conditions without substrate, HDAC1 present, compound 2.4 mM, 90 min 37 °C
Method: In order to address the question if the newly-synthesized carbamates are hydrolyzed during the assay procedure or if they really serve as HDAC inhibitors themselves, stability stress tests were performed. For this purpose, the compounds were subjected to the standard in vitro assay conditions, but without adding a substrate as, no enzyme conversion should be observed in these experiments. After 90 min of incubation at 37 °C, the release of SAHA of the different samples was detected and quantified via HPLC. This led to the finding that a release of SAHA could be detected for all samples (see Table 1). […] This means that the question if the carbamate scaffold represents a new warhead for HDAC inhibition or if the degradation to SAHA is solely responsible for the observed inhibitory effects cannot be resolved completely.
To test the stability of Compound 9 under assay conditions, we also performed stability analysis with HPLC quantification. This experiment led to the finding that 8.7% of the carbamate 9 is degraded under release of bufexamac during incubation time. This fraction of released bufexamac may contribute to in vitro and cellular HDAC inhibition, but the observed selectivity profile of the carbamate in the in vitro assays clearly implies an intrinsic HDAC activity of carbamates.
For stability tests, the carbamates were subjected to the described in vitro assay conditions (see above) without adding the substrate ZMAL and without the second incubation step with trypsin. Compounds were applied in a final concentration of 2.4 mM, and recombinant HDAC1 was used as the enzyme. After 90 min of incubation at 37 °C, the release of SAHA was detected via HPLC on an Agilent 1200 series device. The employed analytical column was a Kinetex 5u XB-C18, 100 Å, 250 × 4.6 mm (Phenomenex, Torrance, CA, USA) with the ReproSil 100 C18 5-µm precolumn (Jasco, Oklahoma City, OK, USA). The following conditions were applied: Eluent A: H2O containing 0.05% TFA, Eluent B: acetonitrile containing 0.05% TFA, linear gradient conditions (0–4 min, A = 90%, B = 10%; 4–29 min, linear increase to 100% of B; 29–31 min, B = 100%; 31.5–40 min, A = 10%, B = 90%); injection volume: 30 µL, flow rate: 1 mL/min; detection wavelength: λ = 254 nm. For evaluation, the ChemStation software from Agilent was used. To quantify the released amount of SAHA and bufexamac, calibration curves were plotted by incubating DMSO stocks of these compounds under in vitro assay conditions with final compound concentrations ranging from 1 µM–200 µM. HPLC analysis with the conditions described above led to the following equations: y = 13.935x − 27.918 for SAHA and y = 0.6099x + 1.1301 for bufexamac.

[8] = system: HL60 cells; assay: Cell proliferation assay (CellTiter 96 AQueous) in HL60 cells; conditions: Homo sapiens, HL-60, 72 h, read-out: GI50 (µM) ± SE HL60
Method: as §3, §4

[9] = system: acetylation of histone H3 and tubulin in HL60 cells; assay: Western blot of acetylation levels of histone H3 and tubulin in HL60 cells; format: cell-based, human; conditions: 4 h
Method: An inhibition of deacetylation in this experiment is expected to lead to hyperacetylation of the respective proteins. Besides histone H3, acetylated tubulin was chosen as a target protein. As tubulin is only accepted as a target by HDAC 6 [21], this allows us to explore subtype selectivity in a cellular setting (see Figure 4).
HL60 cells were treated with the inhibitors in the given concentrations. Cells treated with dimethyl sulfoxide as a vehicle were used as controls. After an incubation time of 4 h, cells were transferred into 50-mL Falcon tubes and centrifuged (300× g, 5 min). The supernatant was removed, and the cells were washed with PBS, before they were transferred to 1.7-mL reaction tubes. The cells were lysated with Bio-Rad loading buffer, and the cell suspension was heated to 95 °C for 5 min. The proteins then were separated using a 15% SDS-polyacrylamide gel electrophoresis and transferred to a polyvinylidene fluoride (PVDF) membrane (Roti-PVDF, Carl Roth, Karlsruhe, Germany). Acetylation levels were detected using an anti-acetyl histone H3 antibody (Millipore, Billerica, MA, USA) and an anti-acetyl-α-tubulin antibody (Sigma Aldrich, St. Louis, MO, USA). An antibody directed against GAPDH (Sigma Aldrich) was used as a loading control.

[10] = recombinant human HDAC1, ZMAL 10.5 µM, 90 min 37 °C

T1 sequence (Q13547 whole entry): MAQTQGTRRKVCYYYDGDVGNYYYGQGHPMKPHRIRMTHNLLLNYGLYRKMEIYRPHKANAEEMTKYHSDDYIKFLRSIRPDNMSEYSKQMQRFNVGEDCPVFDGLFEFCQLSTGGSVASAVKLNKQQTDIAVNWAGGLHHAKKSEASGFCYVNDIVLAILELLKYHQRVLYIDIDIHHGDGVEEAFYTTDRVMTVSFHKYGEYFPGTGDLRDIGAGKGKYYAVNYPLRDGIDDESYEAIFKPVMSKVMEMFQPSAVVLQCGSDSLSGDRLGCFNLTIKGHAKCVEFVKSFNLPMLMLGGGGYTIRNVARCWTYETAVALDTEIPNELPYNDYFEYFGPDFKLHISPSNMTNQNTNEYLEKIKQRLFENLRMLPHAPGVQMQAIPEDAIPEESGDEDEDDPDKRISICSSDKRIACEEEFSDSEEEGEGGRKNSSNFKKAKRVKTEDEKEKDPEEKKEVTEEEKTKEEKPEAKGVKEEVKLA

IC50 (µM) ± SE HDAC1 [1, 10] | IC50 [1, 10] [µM] | GI50 [2] [µM] | IC50 [3] [µM] | inhibition at 100 µM [4] [%] | IC50 (µM) ± SE HDAC6 [5] | IC50 [5] [µM] | IC50 [6] [µM] | Release of SAHA (%) [7] [%] | GI50 [8] [µM] | Compound | inhibition at 300 µM ([1]; at 300 µM, read-out: Inhibition (%) @ Concentration (µM) HDAC1) [%] | acetylation levels of H3 [9] | tubulin acetylation [9]
low micromolar range | 1.52 ± 0.02 | 0.49 ± 0.09 | 3.25 ± 0.02 | 35 | low micromolar range | 2.11 ± 0.02 | 5.3 ± 0.59 | 2.2 | 1.02 ± 0.09 | CC(C)NC(=O)ONC(=O)CCCCCCC(=O)Nc1ccccc1 [Compound 2a, [(8-Anilino-8-oxo-octanoyl)amino]N-isopropylcarbamate] | – | – | –
– | – | 0.43 ± 0.09 | – | – | – | – | – | – | 0.54 ± 0.03 | O=C(CCCCCCC(=O)Nc1ccccc1)NO [SAHA (1), N-hydroxy-N′-phenyloctanediamide, reference compound] | – | – | –
– | 31.7 ± 4.75 | – | – | – | – | 2.24 ± 0.05 | – | – | 31.8 ± 0.57 | CCCCOc1ccc(CC(=O)NO)cc1 [Bufexamac (8), bufexamac, reference compound] | – | not affected | hyperacetylation of tubulin

Compound | IC50 (µM) ± SE HDAC1 [1, 10] | IC50 [1, 10] [µM] | GI50 [2] [µM] | IC50 [3] [µM] | inhibition at 100 µM [4] [%] | IC50 (µM) ± SE HDAC6 [5] | IC50 [5] [µM] | IC50 [6] [µM] | Release of SAHA (%) [7] [%] | GI50 [8] [µM] | inhibition at 300 µM ([1]; at 300 µM, read-out: Inhibition (%) @ Concentration (µM) HDAC1) [%] | acetylation levels of H3 [9] | tubulin acetylation [9]
CCCCOc1ccc(CC(=O)NOC(=O)NC(C)C)cc1 [Compound 9] | – | – | – | – | – | – | 13.7 ± 0.16 | – | – | 33.99 ± 0.06 | 49 | not affected | hyperacetylation of tubulin
